Laboratory results taken from ChEMBL document CHEMBL1165932, “Inhibition of Mycobacterium tuberculosis tyrosine phosphatase PtpA by synthetic chalcones: kinetics, molecular modeling, toxicity and effect on growth” (Bioorg Med Chem, 2010).
Active and inactive are the calls of the source. No cut-off for these calls is given here.

Tests used:
[1] = target: T1, Low molecular weight protein-tyrosine phosphatase A (Mycobacterium tuberculosis) (UniProt P9WIA1); experiment: Competitive inhibition of Mycobacterium tuberculosis PTPA by Lineweaver-Burke plot analysis
T1 sequence (whole entry): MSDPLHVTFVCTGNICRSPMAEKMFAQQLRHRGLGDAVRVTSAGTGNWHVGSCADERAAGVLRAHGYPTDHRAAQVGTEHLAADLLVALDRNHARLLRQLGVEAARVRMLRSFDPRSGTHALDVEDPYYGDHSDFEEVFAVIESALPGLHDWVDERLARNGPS

[2] = target: T2, Phosphotyrosine-protein phosphatase PTPB (Mycobacterium tuberculosis) (UniProt P96830); experiment: Inhibition of Mycobacterium tuberculosis PTPB at 100 uM after 20 mins by ELISA
T2 sequence (whole entry): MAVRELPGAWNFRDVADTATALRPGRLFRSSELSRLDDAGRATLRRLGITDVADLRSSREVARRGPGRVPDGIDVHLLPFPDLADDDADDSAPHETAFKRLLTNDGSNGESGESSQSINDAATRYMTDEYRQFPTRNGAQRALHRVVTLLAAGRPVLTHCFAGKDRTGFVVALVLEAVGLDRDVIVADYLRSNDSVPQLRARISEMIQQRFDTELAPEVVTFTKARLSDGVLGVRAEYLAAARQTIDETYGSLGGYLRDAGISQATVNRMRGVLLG

[3] = test system: Mycobacterium tuberculosis; experiment: Antibacterial activity against Mycobacterium tuberculosis H37Rv infected in human THP1 cells assessed as reduction of bacterial burden at 20 uM after 48 hrs; type: functional; details: for inhibition: THP-1; for inhibition at 20 µM: THP-1, 48 h
[4] = target: T3, Tyrosine-protein phosphatase non-receptor type 1 (Homo sapiens, UniProt P18031); experiment: Inhibition of human PTP1B
T3 sequence (P18031 whole entry): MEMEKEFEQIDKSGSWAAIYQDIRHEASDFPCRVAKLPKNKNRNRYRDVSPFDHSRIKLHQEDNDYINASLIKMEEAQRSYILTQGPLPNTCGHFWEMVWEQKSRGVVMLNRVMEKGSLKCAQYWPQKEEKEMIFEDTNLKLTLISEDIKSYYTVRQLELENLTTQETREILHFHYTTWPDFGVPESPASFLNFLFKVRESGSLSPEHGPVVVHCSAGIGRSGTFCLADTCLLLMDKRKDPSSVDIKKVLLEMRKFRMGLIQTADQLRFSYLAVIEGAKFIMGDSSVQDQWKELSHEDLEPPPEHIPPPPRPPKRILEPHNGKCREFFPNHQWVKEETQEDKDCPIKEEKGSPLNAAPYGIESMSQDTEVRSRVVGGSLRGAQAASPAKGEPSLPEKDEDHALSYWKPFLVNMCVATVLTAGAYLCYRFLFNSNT

[5] = target: T4, Low molecular weight protein-tyrosine phosphatase A (Mycobacterium tuberculosis, UniProt P9WIA1); experiment: Inhibition of Mycobacterium tuberculosis PTPA-mediated pNPP hydrolysis
T4 sequence (P9WIA1 whole entry): T1 sequence (whole entry)

[6] = test system: Mycobacterium tuberculosis; experiment: Antibacterial activity against Mycobacterium tuberculosis H37Rv infected in human THP1 cells assessed as reduction of bacterial burden at 40 uM after 96 hrs; type: functional; details: THP-1, 96 h
THP-1 [7] = experiment: Cytotoxicity against human THP1 cells at 40 uM after 24 hrs by flow cytometry; type: cell-based; details: thp-1, 24 h
THP-1 [8] = experiment: Cytotoxicity against human THP1 cells at 4 uM after 24 hrs by flow cytometry; type: cell-based; details: thp-1, 24 h
[9] = target: T5, Phosphotyrosine-protein phosphatase PTPB (Mycobacterium tuberculosis, UniProt P96830); experiment: Inhibition of N-terminal histidine-tagged Mycobacterium tuberculosis PTPB expressed in Escherichia coli BL21 (DE3) after 45 mins by fluorescence assay
T5 sequence (P96830 whole entry): T2 sequence (whole entry)

[10] = target: T1, Low molecular weight protein-tyrosine phosphatase A (Mycobacterium tuberculosis); experiment: Inhibition of Mycobacterium tuberculosis PTPA-mediated dephosphorylation of VPS33B assessed as increase in phosphorylated VPS33B level after 15 mins by scintillation counting
[11] = target: T4, Low molecular weight protein-tyrosine phosphatase A; experiment: Inhibition of Mycobacterium tuberculosis PTPA after 20 mins by ELISA
[12] = test system: Mycobacterium tuberculosis; experiment: Antibacterial activity against Mycobacterium tuberculosis H37Rv infected in human THP1 cells assessed as reduction of bacterial burden at 10 uM after 24 hrs; type: functional, organism-based; details: THP-1

| Structure (SMILES) | inhibition [1] | inhibition [2] | inhibition [3] | IC50 [4] [µM] | Ki [5] [µM] | inhibition at 40 µM [6] [%] | Activity (THP-1 [7]) [%] | Activity (THP-1 [8]) [%] | inhibition at 20 µM [3] [%] | IC50 [9] [µM] | inhibition [10] | IC50 [11] [µM] | inhibition [12] |
| --- | --- | --- | --- | --- | --- | --- | --- | --- | --- | --- | --- | --- | --- |
| COc1ccc(C(=O)/C=C/c2ccc3ccccc3c2)cc1OC | Active | inactive | inactive | 1260 | 4.9 | 40 | 1.6 |  |  |  |  |  |  |
| COc1ccc(OC)c(C(=O)/C=C/c2ccc3ccccc3c2)c1 | Active | inactive |  | 145 | 5.4 | 90 | 83.1 | 1.3 | 50 |  |  |  |  |
| NC1=S2C=CC(S(N)(=O)=O)=C2C(=O)C1=O (configuration not stated) |  |  |  |  |  |  |  |  |  | 0.44 |  |  |  |
| O=C(/C=C/c1cccc2ccccc12)c1ccccc1O | Active | inactive |  | 158 | 9.1 | 77 | 2 |  | 50 |  | Dose-dependent effect |  |  |
| COc1cc(C(=O)/C=C/c2ccc3ccccc3c2)ccc1O | Active | inactive | inactive | 123 | 17.9 | 80 | 10.5 | 0.9 |  |  |  | 53.7 |  |
| COc1ccc(OC)c(C(=O)/C=C/c2cccc3ccccc23)c1 | Active | inactive |  | 214 | 21.3 | 90 | 77.8 | 0.9 | 77 |  |  |  | inactive |
